From ChEMBL document CHEMBL4007384, “Synthesis and optimization of furano[3,2-d]pyrimidines as selective spleen tyrosine kinase (Syk) inhibitors” (Bioorg Med Chem Lett, 2016)
In brackets after ≈: the same amount, converted by molar mass. Values belong to the molecule of their own block, whether it stands above or below them.

Columns and labels:
[1] = target: Rho-associated protein kinase 2 (Homo sapiens, UniProt O75116); assay: Inhibition of ROCK2 (unknown origin) after 60 mins by TR-FRET assay
[2] = target: Serine/threonine-protein kinase B-raf (Homo sapiens, UniProt P15056); assay: Inhibition of BRAF (unknown origin) after 60 mins by TR-FRET assay
[3] = target: cGMP-dependent protein kinase 1 (Homo sapiens, UniProt Q13976); assay: Inhibition of PKG1A (unknown origin) after 60 mins by TR-FRET assay
[4] = target: T1, Serine/threonine-protein kinase TAO2 (Homo sapiens, UniProt Q9UL54); assay: Inhibition of TAOK2 (unknown origin) after 60 mins by TR-FRET assay
T1 sequence (Q9UL54 whole entry): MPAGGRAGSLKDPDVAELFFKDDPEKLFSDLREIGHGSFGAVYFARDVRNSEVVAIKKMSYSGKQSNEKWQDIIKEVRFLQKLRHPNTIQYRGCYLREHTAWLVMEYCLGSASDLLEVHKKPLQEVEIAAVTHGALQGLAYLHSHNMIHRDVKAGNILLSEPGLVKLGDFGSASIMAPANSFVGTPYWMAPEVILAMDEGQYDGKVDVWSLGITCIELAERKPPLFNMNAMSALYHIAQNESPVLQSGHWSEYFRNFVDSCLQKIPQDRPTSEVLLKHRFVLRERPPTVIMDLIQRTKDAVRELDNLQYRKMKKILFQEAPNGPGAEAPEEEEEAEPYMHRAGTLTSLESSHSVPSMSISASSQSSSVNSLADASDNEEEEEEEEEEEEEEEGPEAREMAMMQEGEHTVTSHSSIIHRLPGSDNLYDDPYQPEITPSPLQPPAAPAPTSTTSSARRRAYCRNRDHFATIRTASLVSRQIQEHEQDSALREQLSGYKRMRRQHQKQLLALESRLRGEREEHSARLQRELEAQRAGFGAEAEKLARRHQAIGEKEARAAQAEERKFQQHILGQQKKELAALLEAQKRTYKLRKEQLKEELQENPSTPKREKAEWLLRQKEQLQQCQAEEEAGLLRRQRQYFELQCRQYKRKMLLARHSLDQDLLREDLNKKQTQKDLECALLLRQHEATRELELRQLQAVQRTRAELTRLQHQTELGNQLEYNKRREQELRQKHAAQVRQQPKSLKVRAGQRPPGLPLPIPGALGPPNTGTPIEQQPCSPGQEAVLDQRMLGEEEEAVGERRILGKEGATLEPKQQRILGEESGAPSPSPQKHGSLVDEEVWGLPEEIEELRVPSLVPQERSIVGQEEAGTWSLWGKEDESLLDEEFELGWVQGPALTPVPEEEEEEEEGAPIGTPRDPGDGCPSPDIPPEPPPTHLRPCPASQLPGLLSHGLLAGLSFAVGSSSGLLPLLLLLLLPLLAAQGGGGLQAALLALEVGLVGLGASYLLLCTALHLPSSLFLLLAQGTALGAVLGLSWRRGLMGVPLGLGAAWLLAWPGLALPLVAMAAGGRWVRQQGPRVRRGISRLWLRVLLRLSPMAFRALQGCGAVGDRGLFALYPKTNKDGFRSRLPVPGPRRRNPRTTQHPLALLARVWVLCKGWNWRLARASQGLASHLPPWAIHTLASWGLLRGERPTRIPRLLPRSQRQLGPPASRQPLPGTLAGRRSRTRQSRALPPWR

[5] = target: T2, Dual specificity protein kinase TTK (Homo sapiens, UniProt P33981); assay: Inhibition of TTK (unknown origin) after 60 mins by TR-FRET assay
T2 sequence (P33981 whole entry): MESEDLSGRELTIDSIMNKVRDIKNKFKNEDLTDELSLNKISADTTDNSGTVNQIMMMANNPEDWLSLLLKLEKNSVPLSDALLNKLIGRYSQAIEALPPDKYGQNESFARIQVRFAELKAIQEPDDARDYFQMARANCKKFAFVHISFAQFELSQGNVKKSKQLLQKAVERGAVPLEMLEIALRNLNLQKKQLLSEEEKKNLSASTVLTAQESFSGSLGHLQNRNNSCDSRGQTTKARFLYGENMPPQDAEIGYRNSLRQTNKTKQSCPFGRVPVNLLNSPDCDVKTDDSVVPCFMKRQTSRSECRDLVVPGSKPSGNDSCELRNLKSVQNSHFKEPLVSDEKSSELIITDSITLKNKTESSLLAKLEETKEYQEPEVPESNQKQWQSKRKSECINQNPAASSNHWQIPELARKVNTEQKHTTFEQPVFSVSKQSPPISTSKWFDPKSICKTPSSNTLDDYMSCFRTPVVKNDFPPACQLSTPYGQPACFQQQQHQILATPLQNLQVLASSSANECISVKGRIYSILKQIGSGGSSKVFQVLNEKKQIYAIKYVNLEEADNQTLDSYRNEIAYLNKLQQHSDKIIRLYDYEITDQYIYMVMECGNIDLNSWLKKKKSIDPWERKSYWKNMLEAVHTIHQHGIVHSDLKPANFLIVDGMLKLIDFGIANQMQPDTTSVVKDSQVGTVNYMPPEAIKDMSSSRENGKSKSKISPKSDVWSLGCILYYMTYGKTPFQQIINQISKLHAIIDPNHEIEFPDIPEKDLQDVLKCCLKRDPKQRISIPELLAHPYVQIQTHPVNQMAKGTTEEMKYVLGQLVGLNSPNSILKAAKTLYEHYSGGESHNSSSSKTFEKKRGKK

[6] = target: T3, Serine/threonine-protein kinase Nek2 (Homo sapiens, UniProt P51955); assay: Inhibition of NEK2 (unknown origin) after 60 mins by TR-FRET assay
T3 sequence (P51955 whole entry): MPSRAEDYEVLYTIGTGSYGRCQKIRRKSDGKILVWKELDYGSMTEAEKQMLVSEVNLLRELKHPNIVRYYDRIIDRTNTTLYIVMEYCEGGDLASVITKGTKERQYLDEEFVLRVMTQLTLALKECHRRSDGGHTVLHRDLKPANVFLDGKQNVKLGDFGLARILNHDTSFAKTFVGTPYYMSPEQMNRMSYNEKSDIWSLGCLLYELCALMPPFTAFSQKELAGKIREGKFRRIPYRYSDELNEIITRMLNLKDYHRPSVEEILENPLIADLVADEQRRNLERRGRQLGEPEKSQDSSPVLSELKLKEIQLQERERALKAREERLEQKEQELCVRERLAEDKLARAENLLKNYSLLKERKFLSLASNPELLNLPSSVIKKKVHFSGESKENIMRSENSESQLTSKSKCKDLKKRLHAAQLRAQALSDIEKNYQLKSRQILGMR

[7] = target: T4, Tyrosine-protein kinase SYK (Homo sapiens, UniProt P43405)
Description: Inhibition of Syk (unknown origin) after 60 mins by TR-FRET assay

[8] = Inhibition of CDK11 (unknown origin) after 60 mins by TR-FRET assay; set-up: species or system Homo sapiens
[9] = target: T4, Tyrosine-protein kinase SYK; remark: listed apart in the source
Description: Inhibition of C-terminal His-tagged Syk catalytic domain (356 to 635 residues) (unknown origin) using biotin-TYR1 as substrate after 60 mins by TR-FRET assay

[10] = Unbound clearance in human microsomes; assay type: ADME, Microsome
[11] = Unbound clearance in rat microsomes; assay type: ADME, Microsome
[12] = Solubility in pH 5 FeSSIF at 0.2 mg sonicated for 10 mins followed by incubation for 2 days by HPLC analysis; assay type: physicochemical
[13] = Cmax in rat at 1 mg/kg, po; assay type: ADME, organism-based; set-up: dose 1 mg/kg, route oral; conditions: in vivo
[14] = test system: Rattus norvegicus; assay: Antiarthritic activity in rat model of collagen-induced arthritis assessed as inhibition of paw swelling at 1 mg/kg, bid for 8 days relative to control; assay type: functional; conditions: 192 h
[15] = test system: Rattus norvegicus; assay: Antiarthritic activity in rat model of collagen-induced arthritis assessed as inhibition of paw swelling at 3 mg/kg, bid for 8 days relative to control; assay type: functional; conditions: 192 h
[16] = test system: Rattus norvegicus; assay: Toxicity in rat model of collagen-induced arthritis at 0.3 to 30 mg/kg, po bid for 8 days; assay type: organism-based; conditions: in vivo, 192 h
[17] = Volume of distribution at steady state in dog at 1 mg/kg, iv; assay type: ADME, organism-based, Canis lupus familiaris; conditions: in vivo, read-out: Vdss
[18] = Volume of distribution at steady state in rat at 1 mg/kg, iv; assay type: ADME, organism-based; conditions: in vivo, read-out: Vdss
[19] = test system: Rattus norvegicus; assay: Antiarthritic activity in rat model of collagen-induced arthritis assessed as inhibition of paw swelling at 0.3 mg/kg, bid for 8 days relative to control; assay type: functional; conditions: 192 h
[20] = Clearance in dog at 1 mg/kg, iv; assay type: ADME, organism-based, Canis lupus familiaris; conditions: in vivo
[21] = test system: Rattus norvegicus; assay: Antiarthritic activity in po dosed rat model of collagen-induced arthritis assessed as inhibition of paw swelling administered bid for 8 days measured on day 8 up to 12 hrs; assay type: functional
[22] = target: Voltage-gated inwardly rectifying potassium channel KCNH2 (Homo sapiens, UniProt Q12809); assay: Inhibition of human ERG
[23] = test system: Rattus norvegicus; assay: Antiarthritic activity in po dosed rat model of collagen-induced arthritis assessed as inhibition of paw swelling administered bid for 8 days; conditions: 192 h
[24] = Oral bioavailability in rat at 1 mg/kg; assay type: ADME, organism-based; conditions: in vivo
[25] = Half life in dog at 1 mg/kg, iv; assay type: ADME, organism-based, Canis lupus familiaris; conditions: in vivo
[26] = AUC in rat at 1 mg/kg, po; assay type: ADME, organism-based; conditions: in vivo
[27] = test system: Rattus norvegicus; assay: Antiarthritic activity in rat model of collagen-induced arthritis assessed as inhibition of paw swelling at 30 mg/kg, bid for 8 days relative to control; assay type: functional; conditions: 192 h
[28] = target: Cytochrome P450 3A4 (Homo sapiens, UniProt P08684); assay: Time-dependent inhibition of CYP3A4 in human liver microsomes at 10 to 50 uM; assay type: ADME
[29] = Half life in rat at 1 mg/kg, iv; assay type: ADME, organism-based; conditions: in vivo
[30] = Cytotoxicity against human HepG2 cells; assay type: cell-based
[31] = Clearance in rat at 1 mg/kg, iv; assay type: ADME, organism-based; conditions: in vivo
[32] = Oral bioavailability in dog at 1 mg/kg; assay type: ADME, organism-based, Canis lupus familiaris; conditions: in vivo
[33] = test system: Rattus norvegicus; assay: Antiarthritic activity in rat model of collagen-induced arthritis assessed as inhibition of paw swelling at 10 mg/kg, bid for 8 days relative to control; assay type: functional; conditions: 192 h
[34] = Cmax in dog at 1 mg/kg, po; assay type: ADME, organism-based, Canis lupus familiaris; set-up: dose 1 mg/kg, route oral; conditions: in vivo
[35] = AUC in dog at 1 mg/kg, po; assay type: ADME, organism-based, Canis lupus familiaris; conditions: in vivo

Sequence of Voltage-gated inwardly rectifying potassium channel KCNH2 (Q12809 whole entry): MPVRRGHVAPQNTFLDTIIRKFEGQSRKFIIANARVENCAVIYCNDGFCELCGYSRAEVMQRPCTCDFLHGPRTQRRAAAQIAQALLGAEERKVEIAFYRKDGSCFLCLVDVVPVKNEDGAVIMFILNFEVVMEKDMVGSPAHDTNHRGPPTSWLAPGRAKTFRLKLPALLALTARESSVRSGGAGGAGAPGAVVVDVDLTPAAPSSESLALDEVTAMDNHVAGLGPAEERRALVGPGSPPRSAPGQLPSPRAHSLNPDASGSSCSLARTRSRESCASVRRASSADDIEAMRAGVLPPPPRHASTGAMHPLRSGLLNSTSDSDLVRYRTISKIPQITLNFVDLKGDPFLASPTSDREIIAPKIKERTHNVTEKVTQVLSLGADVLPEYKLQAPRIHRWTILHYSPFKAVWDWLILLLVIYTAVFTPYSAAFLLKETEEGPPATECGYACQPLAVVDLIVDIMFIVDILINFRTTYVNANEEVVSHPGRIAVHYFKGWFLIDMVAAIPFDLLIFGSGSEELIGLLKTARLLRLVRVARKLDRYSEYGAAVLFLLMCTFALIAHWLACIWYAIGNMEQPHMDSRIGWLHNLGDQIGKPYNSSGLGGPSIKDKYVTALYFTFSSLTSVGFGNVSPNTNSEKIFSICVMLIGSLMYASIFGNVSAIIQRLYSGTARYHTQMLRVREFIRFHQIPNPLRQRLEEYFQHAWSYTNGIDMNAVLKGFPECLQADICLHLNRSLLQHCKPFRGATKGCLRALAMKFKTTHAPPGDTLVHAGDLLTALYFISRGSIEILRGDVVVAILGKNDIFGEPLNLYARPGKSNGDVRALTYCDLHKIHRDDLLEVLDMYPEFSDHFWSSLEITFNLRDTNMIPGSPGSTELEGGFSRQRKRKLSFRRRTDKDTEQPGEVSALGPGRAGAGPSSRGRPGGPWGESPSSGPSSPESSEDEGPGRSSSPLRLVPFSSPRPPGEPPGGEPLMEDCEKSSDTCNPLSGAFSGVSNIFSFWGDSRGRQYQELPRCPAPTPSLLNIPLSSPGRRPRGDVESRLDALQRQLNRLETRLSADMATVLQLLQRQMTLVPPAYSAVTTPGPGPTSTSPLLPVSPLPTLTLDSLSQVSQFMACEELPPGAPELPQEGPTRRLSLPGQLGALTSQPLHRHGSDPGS
Sequence of cGMP-dependent protein kinase 1 (Q13976 whole entry): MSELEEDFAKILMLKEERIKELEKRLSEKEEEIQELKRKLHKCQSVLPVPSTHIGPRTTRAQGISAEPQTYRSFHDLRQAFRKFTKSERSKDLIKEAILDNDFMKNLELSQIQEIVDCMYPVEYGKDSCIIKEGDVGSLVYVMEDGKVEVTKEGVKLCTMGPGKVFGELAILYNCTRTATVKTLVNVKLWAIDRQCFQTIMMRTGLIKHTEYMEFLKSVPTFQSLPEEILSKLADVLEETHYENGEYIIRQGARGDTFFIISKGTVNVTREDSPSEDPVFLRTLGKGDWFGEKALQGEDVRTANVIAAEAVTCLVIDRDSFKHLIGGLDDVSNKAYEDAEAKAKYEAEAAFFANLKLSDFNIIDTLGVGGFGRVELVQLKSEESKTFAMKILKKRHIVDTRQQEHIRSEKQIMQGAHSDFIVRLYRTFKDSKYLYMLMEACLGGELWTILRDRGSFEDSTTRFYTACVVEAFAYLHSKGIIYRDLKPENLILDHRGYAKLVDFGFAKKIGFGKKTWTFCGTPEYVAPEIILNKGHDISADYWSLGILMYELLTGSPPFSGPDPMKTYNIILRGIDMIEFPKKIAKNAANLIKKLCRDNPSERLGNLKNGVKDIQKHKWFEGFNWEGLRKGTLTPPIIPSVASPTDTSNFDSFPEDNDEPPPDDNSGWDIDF
Sequence of Cytochrome P450 3A4 (P08684 whole entry): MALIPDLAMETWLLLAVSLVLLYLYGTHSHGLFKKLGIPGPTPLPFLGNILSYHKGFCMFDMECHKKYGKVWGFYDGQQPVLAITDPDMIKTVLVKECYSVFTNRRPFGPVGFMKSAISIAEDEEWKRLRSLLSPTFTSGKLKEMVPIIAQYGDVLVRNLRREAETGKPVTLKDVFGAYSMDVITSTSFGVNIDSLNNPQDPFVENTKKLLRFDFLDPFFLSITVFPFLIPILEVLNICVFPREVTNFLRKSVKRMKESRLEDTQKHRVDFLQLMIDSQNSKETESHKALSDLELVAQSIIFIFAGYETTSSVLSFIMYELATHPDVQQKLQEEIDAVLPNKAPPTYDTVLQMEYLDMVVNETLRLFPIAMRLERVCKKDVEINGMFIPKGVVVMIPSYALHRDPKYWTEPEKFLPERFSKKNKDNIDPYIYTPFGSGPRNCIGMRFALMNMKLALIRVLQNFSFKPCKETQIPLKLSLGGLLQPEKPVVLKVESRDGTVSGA
Sequence of Rho-associated protein kinase 2 (O75116 whole entry): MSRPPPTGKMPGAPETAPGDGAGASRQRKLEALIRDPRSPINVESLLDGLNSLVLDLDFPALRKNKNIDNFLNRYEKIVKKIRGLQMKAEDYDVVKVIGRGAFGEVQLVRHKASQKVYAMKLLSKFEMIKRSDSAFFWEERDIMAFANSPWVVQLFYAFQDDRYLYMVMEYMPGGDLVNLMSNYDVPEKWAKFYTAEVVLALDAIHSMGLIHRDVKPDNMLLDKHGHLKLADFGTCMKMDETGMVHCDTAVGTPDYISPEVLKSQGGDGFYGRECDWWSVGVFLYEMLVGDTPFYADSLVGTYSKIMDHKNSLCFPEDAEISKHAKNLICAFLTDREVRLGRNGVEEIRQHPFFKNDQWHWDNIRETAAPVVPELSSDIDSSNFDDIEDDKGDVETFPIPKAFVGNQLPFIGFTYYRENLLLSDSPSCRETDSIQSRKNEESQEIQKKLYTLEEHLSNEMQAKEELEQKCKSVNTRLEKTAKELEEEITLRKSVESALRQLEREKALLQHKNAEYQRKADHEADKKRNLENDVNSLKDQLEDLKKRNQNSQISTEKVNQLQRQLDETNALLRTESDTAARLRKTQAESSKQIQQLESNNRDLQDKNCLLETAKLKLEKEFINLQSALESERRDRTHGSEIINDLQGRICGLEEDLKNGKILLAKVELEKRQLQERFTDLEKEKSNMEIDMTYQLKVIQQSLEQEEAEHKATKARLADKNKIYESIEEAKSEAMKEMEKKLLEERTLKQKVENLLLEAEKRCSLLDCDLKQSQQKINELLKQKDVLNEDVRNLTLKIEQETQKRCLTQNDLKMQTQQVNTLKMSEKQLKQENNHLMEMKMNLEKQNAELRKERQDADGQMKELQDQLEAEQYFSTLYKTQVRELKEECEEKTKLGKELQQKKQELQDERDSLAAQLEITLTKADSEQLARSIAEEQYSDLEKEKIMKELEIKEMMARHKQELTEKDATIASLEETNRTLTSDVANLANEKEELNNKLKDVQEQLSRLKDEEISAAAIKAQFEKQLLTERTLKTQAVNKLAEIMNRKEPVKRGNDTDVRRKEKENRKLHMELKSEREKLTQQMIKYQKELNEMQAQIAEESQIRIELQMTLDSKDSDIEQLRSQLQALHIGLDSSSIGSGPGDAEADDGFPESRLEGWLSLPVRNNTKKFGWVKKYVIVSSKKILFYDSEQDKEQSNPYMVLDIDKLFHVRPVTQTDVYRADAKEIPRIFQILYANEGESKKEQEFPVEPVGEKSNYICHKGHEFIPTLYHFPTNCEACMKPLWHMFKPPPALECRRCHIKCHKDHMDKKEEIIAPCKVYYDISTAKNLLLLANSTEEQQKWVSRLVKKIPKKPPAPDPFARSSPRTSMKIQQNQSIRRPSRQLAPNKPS
Sequence of Serine/threonine-protein kinase B-raf (P15056 whole entry): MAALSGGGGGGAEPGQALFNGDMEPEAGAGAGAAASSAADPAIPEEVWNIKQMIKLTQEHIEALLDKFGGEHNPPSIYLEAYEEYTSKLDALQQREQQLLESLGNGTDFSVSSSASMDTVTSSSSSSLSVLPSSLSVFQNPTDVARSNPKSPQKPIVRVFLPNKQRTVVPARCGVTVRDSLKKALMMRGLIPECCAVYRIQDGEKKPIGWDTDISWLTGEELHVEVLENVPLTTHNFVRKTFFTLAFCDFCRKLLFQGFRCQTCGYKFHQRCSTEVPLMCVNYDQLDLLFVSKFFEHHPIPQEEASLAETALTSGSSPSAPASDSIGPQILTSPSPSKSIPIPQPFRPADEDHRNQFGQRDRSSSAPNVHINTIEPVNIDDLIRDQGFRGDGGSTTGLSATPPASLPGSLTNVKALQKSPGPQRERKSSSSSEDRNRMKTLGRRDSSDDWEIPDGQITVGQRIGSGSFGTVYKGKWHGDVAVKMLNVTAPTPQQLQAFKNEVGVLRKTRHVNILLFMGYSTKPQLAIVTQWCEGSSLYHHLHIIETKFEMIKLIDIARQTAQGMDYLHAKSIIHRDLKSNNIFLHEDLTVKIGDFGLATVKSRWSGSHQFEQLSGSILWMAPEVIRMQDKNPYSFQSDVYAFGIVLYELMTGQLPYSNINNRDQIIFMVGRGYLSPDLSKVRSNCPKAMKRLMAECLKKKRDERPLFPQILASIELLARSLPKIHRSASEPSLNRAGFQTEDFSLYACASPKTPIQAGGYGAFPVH

SMILES: COC(=O)N[C@H]1CC(C)(C)c2ccc(Nc3nc(NC4CC4)c4occc4n3)cc2NC1=O
CL free [10]: 118 mL/min/kg
CL free [11]: 332 mL/min/kg

SMILES: CC1(C)Oc2ccc(Nc3nc(NCC(F)(F)F)c4occc4n3)cc2NC1=O
CL free [11]: 177 mL/min/kg

SMILES: COC(=O)N[C@@H]1CC(C)(C)c2ccc(Nc3nc(NC4CC4)c4occc4n3)cc2NC1=O
CL free [10]: 123 mL/min/kg
CL free [11]: 182 mL/min/kg
solubility at 48 h [12]: 27 µM (≈ 12.2 µg/mL)

SMILES: COC(=O)N[C@@H]1CC(C)(C)c2ccc(Nc3nc(NCC(F)F)c4occc4n3)cc2NC1=O
Cmax [13]: 36 ng/mL
inhibition in vivo at 1 mg/kg [14]: 21%
inhibition in vivo at 3 mg/kg [15]: 28%
Activity [16]: Non-Toxic
Vd [17]: 2.3 L/kg
CL free [10]: < 38.3 mL/min/kg
Vd [18]: 4.6 L/kg
inhibition in vivo at 0.3 mg/kg [19]: 21%
clearance [20]: 2.83 mL/min/kg
EAUC50 [21]: 3.9 µg·h/mL
IC50 [22]: > 20000 nM
ED50 [23]: 9 mg/kg
bioavailability [24]: 27%
half-life [25]: 9.9 h
AUC [26]: 180 ng·h/mL
inhibition in vivo at 30 mg/kg [27]: 95%
CL free [11]: 177 mL/min/kg
solubility at 48 h [12]: > 67 µM
TDI [28]: Not Active
half-life [29]: 2 h
IC20 [30]: > 10000 nM
clearance [31]: 28.3 mL/min/kg
bioavailability [32]: 40%
inhibition in vivo at 10 mg/kg [33]: 75%
Cmax [34]: 151 ng/mL
AUC [35]: 2340 ng·h/mL

The remaining lines, values ahead:

IC50 [1]: 248 nM
IC50 [2]: > 10000 nM
IC50 [3]: > 10000 nM
IC50 [4]: 529 nM
IC50 [5]: 991 nM
IC50 [6]: > 10000 nM
IC50 [7]: 8 nM
IC50 [8]: > 10000 nM
IC50 [9]: 17 nM
SMILES: CCCNC(=O)c1ccc(Nc2nc(NCC(F)(F)F)c3cc[nH]c3n2)cc1

CL free [10]: 307 mL/min/kg
CL free [11]: 373 mL/min/kg
solubility at 48 h [12]: > 200 µM
SMILES: CCCNc1nc(Nc2ccc3c(c2)NC(=O)COC3(C)C)nc2ccoc12
